Test results as given in ChEMBL document CHEMBL1240321, “Cyclostreptin binds covalently to microtubule pores and lumenal taxoid binding sites” (Nat Chem Biol, 2007).

Assay: Induction of mitotic cell cycle arrest in human A2780AD cells assessed as accumulation of cells at SubG1 phase at 100 nM after 24 hrs by flow cytometry (Rvb= 4.1%)
Type: functional, A2780 ADR

Question: Which Activity does the source give for `CC1=C[C@H]2[C@@H](O)[C@H](C)[C@@H](O)[C@@H]2[C@H]2[C@@H]3C4=C5O[C@](C)(CC[C@@H](OC4=O)[C@H]5C)[C@@H]3C[C@@H]12` [CYCLOSTREPTIN] here?
Answer: The Activity was 16.4%.
